# Assay results reported in patent publication US3957987A, “Compositions containing a carbonamidoquinoxaline-di-N-oxide and method of using same” (Bayer Aktiengesellschaft, priority 1971, dated 1976).
# Assays:
# Klebsiella 8085 = test: Minimum inhibitory concentration in vitro, Klebsiella 8085; type: cell-based
# Excerpt: (§1) As representative of the spectrum of antimicrobial activity for these compounds, the following representative minimum inhibitory concentrations shown on Tables A, B and C can be noted:
# (§2) Minimum Inhibitory Concentrations In Vitro, in μg/ml of Medium
# Streptococcus pyogenes = test: Minimum inhibitory concentration in vitro, Streptococcus pyogenes; type: cell-based
# Excerpt: as §1, §2
# Clostridium tetani = test: microbe, parasite or virus in culture; type: cell-based; conditions: read-out: minimum inhibitory concentration
# [1] = test system: Alcaligenes faecalis ATCC; test: Minimum inhibitory concentration, Alcaligenes faecalis ATCC; type: cell-based
# Aeromonas liquefaciens = test: Minimum inhibitory concentration, Aeromonas liquefaciens; type: cell-based; conditions: Aeromonas hydrophila
# Mycoplasma S6 = test: Minimum inhibitory concentration, Mycoplasma S6; type: cell-based
# [2] = test system: Bordetella bronchiseptica; test: Minimum inhibitory concentration, Bordetella bronchiseptica; type: cell-based
# Clostridium botulinum = test: microbe, parasite or virus in culture; type: cell-based; conditions: read-out: minimum inhibitory concentration
# [3] = test system: Pasteurella multocida ATCC; test: Minimum inhibitory concentration, Pasteurella multocida ATCC; type: cell-based
# [4] = test system: Staphylococcus aureus 133; test: Minimum inhibitory concentration in vitro, Staphylococcus aureus 133; type: cell-based
# Excerpt: as §1, §2
# Mycoplasma gran = test: Minimum inhibitory concentration, Mycoplasma gran; type: cell-based
# Mycobacterium species = test: Minimum inhibitory concentration, Mycobacterium species; type: cell-based
# Excerpt: (§3) As representative of the spectrum of antimicrobial activity for these compounds, the following representative minimum inhibitory concentrations shown on Tables A, B and C can be noted: […]
# Chick Fattening Test = type: in vivo; conditions: for Relative Weight Increase (%) after 14 days / Relative Weight Increase (%) after 28 days: control 100.0
# Excerpt: The use of these compounds as feed additives can be seen from the following feeding experiments (Table D).
# Chicks in groups of 12 were kept in cages and supplied with water ad libitum and a complete chick feed into which was intimately mixed the indicated amount of the test compound.
# Mycoplasma MS = test: Minimum inhibitory concentration, Mycoplasma MS; type: cell-based
# Excerpt: as §3
Structure (SMILES),MIC (Klebsiella 8085),MIC (Streptococcus pyogenes),MIC (Clostridium tetani),MIC [1],MIC (Aeromonas liquefaciens),MIC (Mycoplasma S6),MIC [2],MIC (Clostridium botulinum),MIC [3],MIC (Mycoplasma gran),MIC (Mycobacterium species),MIC (Mycoplasma MS),other results
COC(=O)NN=Cc1c(C(=O)NCCO)[n+]([O-])c2ccccc2[n+]1[O-] [Example 14],100 µg/mL,100 µg/mL,100 µg/mL,100 µg/mL,100 µg/mL,100 µg/mL,100 µg/mL,100 µg/mL,100 µg/mL,100 µg/mL,–,–,MIC [4]: 100 µg/mL
COC(=O)NN=Cc1c(C(=O)NC2CCCCC2)[n+]([O-])c2ccccc2[n+]1[O-] [Example 16],100 µg/mL,100 µg/mL,100 µg/mL,100 µg/mL,100 µg/mL,100 µg/mL,100 µg/mL,100 µg/mL,100 µg/mL,100 µg/mL,–,–,MIC [4]: 100 µg/mL
O=C(NCCO)c1c(C=NO)[n+]([O-])c2ccccc2[n+]1[O-] [Example 20],–,–,100 µg/mL,100 µg/mL,100 µg/mL,100 µg/mL,100 µg/mL,100 µg/mL,100 µg/mL,100 µg/mL,100 µg/mL,–,"Relative Weight Increase (%) after 14 days (Chick Fattening Test; Test 1, 50 ppm in feed): 107.4%; Absolute Weight Increase (g) of each animal after 14 days (Chick Fattening Test; Test 1, 50 ppm in feed, control 111.5): 119.9 g; Average Weight of each animal after 14 days (Chick Fattening Test; Test 1, 50 ppm in feed, control 170.8, initial weight 59.3 g): 179.2; Relative Weight Increase (%) after 28 days (Chick Fattening Test; Test 1, 50 ppm in feed): 104.1%; Absolute Weight Increase (g) of each animal after 28 days (Chick Fattening Test; Test 1, 50 ppm in feed, control 275.9): 287.3 g; Average Weight of each animal after 28 days (Chick Fattening Test; Test 1, 50 ppm in feed, control 335.2, initial weight 59.3 g): 346.6; Relative Weight Increase (%) after 14 days (Chick Fattening Test; Test 2, 10 ppm in feed): 104.5%; Absolute Weight Increase (g) of each animal after 14 days (Chick Fattening Test; Test 2, 10 ppm in feed, control 109.2): 114.2 g; Average Weight of each animal after 14 days (Chick Fattening Test; Test 2, 10 ppm in feed, control 168.3, initial weight 59.1 g): 173.3; Relative Weight Increase (%) after 28 days (Chick Fattening Test; Test 2, 10 ppm in feed): 102.2%; Absolute Weight Increase (g) of each animal after 28 days (Chick Fattening Test; Test 2, 10 ppm in feed, control 292.5): 299.2 g; Average Weight of each animal after 28 days (Chick Fattening Test; Test 2, 10 ppm in feed, control 351.6, initial weight 59.1 g): 358.3; Relative Weight Increase (%) after 14 days (Chick Fattening Test; Test 2, 20 ppm in feed): 106.8%; Absolute Weight Increase (g) of each animal after 14 days (Chick Fattening Test; Test 2, 20 ppm in feed, control 109.2): 116.7 g; Average Weight of each animal after 14 days (Chick Fattening Test; Test 2, 20 ppm in feed, control 168.3, initial weight 59.1 g): 175.8; Relative Weight Increase (%) after 28 days (Chick Fattening Test; Test 2, 20 ppm in feed): 102.8%; Absolute Weight Increase (g) of each animal after 28 days (Chick Fattening Test; Test 2, 20 ppm in feed, control 292.5): 300.9 g; Average Weight of each animal after 28 days (Chick Fattening Test; Test 2, 20 ppm in feed, control 351.6, initial weight 59.1 g): 360.0"
COC(=O)NN=Cc1c(C(=O)N2CCOCC2)[n+]([O-])c2ccccc2[n+]1[O-] [Example 21],–,–,100 µg/mL,100 µg/mL,1 µg/mL,1 µg/mL,100 µg/mL,1 µg/mL,10 µg/mL,0.1 µg/mL,100 µg/mL,10 µg/mL,–
CCNC(=O)c1c(C=NO)[n+]([O-])c2ccccc2[n+]1[O-] [Example 22],–,–,100 µg/mL,100 µg/mL,0.1 µg/mL,10 µg/mL,100 µg/mL,1 µg/mL,10 µg/mL,10 µg/mL,100 µg/mL,100 µg/mL,–
CNC(=O)c1c(C=NNC(=O)OCCO)[n+]([O-])c2ccccc2[n+]1[O-] [Example 25],–,–,100 µg/mL,100 µg/mL,100 µg/mL,100 µg/mL,100 µg/mL,1 µg/mL,100 µg/mL,1 µg/mL,–,100 µg/mL,–
CCOC(=O)NN=Cc1c(C(=O)NCCO)[n+]([O-])c2ccccc2[n+]1[O-] [Example 27],100 µg/mL,100 µg/mL,100 µg/mL,100 µg/mL,100 µg/mL,100 µg/mL,100 µg/mL,100 µg/mL,100 µg/mL,100 µg/mL,–,–,–
O=C(NN=Cc1c(C(=O)NCCO)[n+]([O-])c2ccccc2[n+]1[O-])OCCO [Example 28],–,–,100 µg/mL,100 µg/mL,100 µg/mL,100 µg/mL,100 µg/mL,100 µg/mL,100 µg/mL,100 µg/mL,–,–,–
O=C(NCCO)c1c(C=NNC(=O)N2CCOCC2)[n+]([O-])c2ccccc2[n+]1[O-] [Example 29],–,–,100 µg/mL,100 µg/mL,100 µg/mL,100 µg/mL,100 µg/mL,100 µg/mL,100 µg/mL,100 µg/mL,40 µg/mL,–,–
